Results published in patent US7189732B2, “Pyrido[2,3-d]pyrimidine dichloro-phenyl derivatives” (Hoffman-La Roche Inc., priority 2004, dated 2007).

Assays:
Src (p60^c-src) = target: T1, Src (p60^c-src) (Homo sapiens, UniProt P12931); assay: SRC-Inhibitor-Assay, time-resolved fluorescence kinase assay (Src); type: biochemical; conditions: ATP 5 μM; peptide 10 μM; enzyme 2.5 U/ml; pre-incubated 15 min at 15° C.
T1 construct: purchased Upstate Biotechnology, Inc., Lake Placid, N.Y. (UBI)
From the text: (§1) The activity of the compounds according to this invention as inhibitors for the src-family tyrosine kinases was shown by using the following assay. As used herein Ro refers to the peptide: NH2-A-E-E-E-I-Y-G-E-F-E-A-K-K-K-K-CONH2(SEQ ID NO: 1); Ja133-Ro refers to the peptide: Ja133-G-Aminocaprylic acid-A-E-E-E-I-Y-G-E-F-E-A-K-K-K-K-CONH2(SEQ ID NO: 2), wherein Ja133 is LightCycler-Red 640-N-hydroxy succinimide ester; PT66 refers to a phosphotyrosine specific antibody which can detect the phoyphorylated tyrosine of protein tyrosine kinase; and TCEP refers to Tris(2-carboxyethyl)phosphine; Lck Cisbio Mab PT66-K refers to Anti-Phosphotyrosine (PT66)-Cryptate; and Src EG&G Wallac PT66 Eu-W1024 refers to Eu^3+-labelled Anti-Phosphotyrosine (PT66)-Cryptate.
(§2) whereby both peptides were synthesized by an optimized solid phase peptide synthesis protocol (Merrifield, Fed. Proc. Fed. Amer. Soc. Exp. Biol. 21(1962) 412) on a Zinsser SMP350 peptide synthesizer. Shortly, the peptide was assembled on 160 mg (22.8 μmol scale) of a Rink-Linker modified polystyrene solid phase by repeatedly conjugating an twenty fold excess of amino acids each protected by temporary piperidine labile Fmoc- and permanent acid labile tert-Bu-, BOC- and tert-BuO-groups depending on the side chain function. The substrate sequence AEEEIYGEFEAKKKK (SEQ ID NO: 1) was N-terminal additionally mounted with the spacer amino acids Aminocaprylic acid and Glycin. After cleavage of the N-terminal temporary protecting group the still attached and protected peptide was labeled with a 1.5 fold amount of LightCycler-Red 640-N-hydroxy succinimide ester (purchased by Roche Diagnostics GmbH) and triethylamine. After 3 hrs. the resin was washed with Dimethylformamide and Isopropanol until the eluates of the blue resin got colorless. […] The substrate was finally isolated by a preparative reverse phase HPLC purification. The purification yielded 12.2 mg RP-HPLC single peak pure blue material (lyophilisate). The identity was proven by Matrix Assisted Laser Desorption Ionization (MALDI) mass spectroscopy [2720.0]. Enzymes: Upstate Lck (p56^lck, active), Upstate Src (p60^c-src, partially purified) were purchased from Upstate Biotechnology, Inc., Lake Placid, N.Y. (UBI). Time-resolved Fluorescence Assay: Reader: Perkin Elmer, Wallac Viktor 1420-040 multilabel counter; Liquid handling system: Beckman Coulter, Biomek 2000. ATP, Tween 20, HEPES were purchased from Roche Molecular Biochemicals, MgCl2 and MnCl2 were purchased from Merck Eurolab, TCEP was purchased from Pierce, 384 Well low volume fluorescence plates was purchased from Falcon. Assay Description:
(§3) At first the enzyme is pre-incubated for 15 min. at 15° C. in aqueous solution with corresponding amounts of inhibitors according to this invention. Then the phosphorylation reaction is started by adding a reaction mixture, containing ATP, Peptide and PT66, and subsequent shaking. The proceeding of this reaction is immediately monitored using time resolved fluorescence spectroscopy in a suitable well plate reader.
(§4) The IC50-values can be obtained from the reaction rates by using a non-linear curve fit (EXCELFIT software, from ID Business Solution Ltd., Guilford, Surrey, UK).

Lck (p56^lck) = target: T2, Lck (p56^lck) (Homo sapiens, UniProt P06239); assay: SRC-Inhibitor-Assay, time-resolved fluorescence kinase assay (Lck); type: biochemical; conditions: ATP 5 μM; peptide 10 μM; enzyme 2.5 U/ml; pre-incubated 15 min at 15° C.
T2 construct: purchased Upstate Biotechnology, Inc., Lake Placid, N.Y. (UBI)
From the text: as §1, §2, §3, §4

T2 sequence (P06239 whole entry, species assumed): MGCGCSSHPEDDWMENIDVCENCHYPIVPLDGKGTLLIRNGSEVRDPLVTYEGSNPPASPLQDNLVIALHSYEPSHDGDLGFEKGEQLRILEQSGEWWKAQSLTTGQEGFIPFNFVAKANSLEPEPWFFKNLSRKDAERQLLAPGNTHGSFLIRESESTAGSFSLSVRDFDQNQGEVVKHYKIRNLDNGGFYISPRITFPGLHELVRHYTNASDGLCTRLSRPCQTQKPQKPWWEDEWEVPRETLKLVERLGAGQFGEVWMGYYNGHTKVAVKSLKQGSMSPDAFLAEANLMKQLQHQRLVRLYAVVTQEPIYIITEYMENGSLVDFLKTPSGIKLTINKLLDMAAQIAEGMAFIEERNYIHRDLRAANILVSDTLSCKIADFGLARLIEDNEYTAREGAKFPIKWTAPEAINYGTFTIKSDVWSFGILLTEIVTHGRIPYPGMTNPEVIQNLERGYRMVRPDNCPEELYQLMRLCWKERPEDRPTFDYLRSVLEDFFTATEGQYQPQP
T1 sequence (P12931 whole entry): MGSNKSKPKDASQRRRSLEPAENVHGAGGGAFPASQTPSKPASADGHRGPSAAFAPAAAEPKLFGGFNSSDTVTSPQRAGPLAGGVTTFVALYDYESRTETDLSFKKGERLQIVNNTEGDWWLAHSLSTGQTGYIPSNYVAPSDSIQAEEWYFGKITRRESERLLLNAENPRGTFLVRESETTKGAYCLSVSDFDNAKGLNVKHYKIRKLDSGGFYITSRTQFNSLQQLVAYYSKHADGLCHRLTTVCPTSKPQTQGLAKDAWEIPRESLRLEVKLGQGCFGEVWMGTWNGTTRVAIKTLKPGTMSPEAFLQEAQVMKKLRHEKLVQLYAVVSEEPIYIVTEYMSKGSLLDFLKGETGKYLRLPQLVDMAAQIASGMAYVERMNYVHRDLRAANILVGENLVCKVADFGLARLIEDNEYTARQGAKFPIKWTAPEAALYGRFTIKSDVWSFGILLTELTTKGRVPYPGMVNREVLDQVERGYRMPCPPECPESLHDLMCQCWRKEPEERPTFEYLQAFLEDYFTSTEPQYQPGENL

Row | Structure (SMILES) | IC50 (Src (p60^c-src)) [nM] | IC50 (Lck (p56^lck)) [nM]
1 | O=C(NC[C@H]1CCCN1)c1nc2nc(Nc3ccc(N4CCOCC4)cc3)ncc2cc1-c1c(Cl)cccc1Cl [Example 1, 6-(2,6-Dichloro-phenyl)-2-(4-morpholin-4-yl-phenylamino)-pyrido[2,3-d]pyrimidine-7-carboxylic acid ((R)-1-pyrrolidin-2-ylmethyl)-amide] | 0.4 | 1.7
2 | N#Cc1nc2nc(Nc3ccc(OCCO)cc3)ncc2cc1-c1c(Cl)cccc1Cl [Example 4, 6-(2,6-Dichloro-phenyl)-2-[4-(2-hydroxy-ethoxy)-phenylamino]-pyrido[2,3-d]pyrimidine-7-carbonitrile] | 1.7 | 6.4
3 | O=C(NCCO)c1nc2nc(Nc3ccc(N4CCOCC4)cc3)ncc2cc1-c1c(Cl)cccc1Cl [Example 6-2, 6-(2,6-Dichloro-phenyl)-2-(4-morpholin-4-yl-phenylamino)-pyrido[2,3-d]pyrimidine-7-carboxylic acid (2-hydroxy-ethyl)-amide] | 1.8 | 4.1
4 | CS(=O)(=O)NCCNC(=O)c1nc2nc(Nc3cccc(NS(C)(=O)=O)c3)ncc2cc1-c1c(Cl)cccc1Cl [Example 6-6, 6-(2,6-Dichloro-phenyl)-2-(3-methanesulfonylamino-phenylamino)-pyrido[2,3-d]pyrimidine-7-carboxylic acid (2-methanesulfonylamino-ethyl)-amide] | 0.2 | 1.3
5 | CCN(CC)CCOc1ccc(Nc2ncc3cc(-c4c(Cl)cccc4Cl)c(C#N)nc3n2)cc1 [Example 7-1, 6-(2,6-Dichloro-phenyl)-2-[4-(2-diethylamino-ethoxy)-phenylamino]-pyrido[2,3-d]pyrimidine-7-carbonitrile] | 0.5 | 2.7
6 | N#Cc1nc2nc(Nc3ccc(N4CCOCC4)cc3)ncc2cc1-c1c(Cl)cccc1Cl [Example 7-2, 6-(2,6-Dichloro-phenyl)-2-(4-morpholin-4-yl-phenylamino)-pyrido[2,3-d]pyrimidine-7-carbonitrile] | 1.3 | 11.7
7 | NC(=O)c1nc2nc(Nc3ccc(N4CCOCC4)cc3)ncc2cc1-c1c(Cl)cccc1Cl [Example 8-1, 6-(2,6-Dichloro-phenyl)-2-(4-morpholin-4-yl-phenylamino)-pyrido[2,3-d]pyrimidine-7-carboxylic acid amide] | 1 | 3.7

Next, values leading:

Row | IC50 (Src (p60^c-src)) [nM] | IC50 (Lck (p56^lck)) [nM] | Structure (SMILES)
8 | 0.3 | 1 | CN1CCN(c2ccc(Nc3ncc4cc(-c5c(Cl)cccc5Cl)c(C(=O)NCCNS(C)(=O)=O)nc4n3)cc2)CC1 [Example 2, 6-(2,6-Dichloro-phenyl)-2-[4-(4-methyl-piperazin-1-yl)-phenylamino]-pyrido[2,3-d]pyrimidine-7-carboxylic acid (2-methanesulfonylamino-ethyl)-amide]
9 | 0.7 | 2 | CS(=O)(=O)NCCNC(=O)c1nc2nc(Nc3cccc(SCCO)c3)ncc2cc1-c1c(Cl)cccc1Cl [Example 3, 6-(2,6-Dichloro-phenyl)-2-[3-(2-hydroxy-ethylsulfanyl)-phenylamino]-pyrido[2,3-d]pyrimidine-7-carboxylic acid (2-methanesulfonylamino-ethyl)-amide]
10 | 2.2 | 7.6 | NC(=O)c1nc2nc(Nc3ccc(OCCO)cc3)ncc2cc1-c1c(Cl)cccc1Cl [Example 5, 6-(2,6-Dichloro-phenyl)-2-[4-(2-hydroxy-ethoxy)-phenylamino]-pyrido[2,3-d]pyrimidine-7-carboxylic acid amide]
11 | 5.4 | 8.2 | O=C(NCCO)c1nc2nc(Nc3ccc(OCCO)cc3)ncc2cc1-c1c(Cl)cccc1Cl [Example 6-1, 6-(2,6-Dichloro-phenyl)-2-[4-(2-hydroxy-ethoxy)-phenylamino]-pyrido[2,3-d]pyrimidine-7-carboxylic acid (2-hydroxy-ethyl)-amide]
12 | 0.9 | 1.5 | CS(=O)(=O)NCCNC(=O)c1nc2nc(Nc3ccc(N4CCOCC4)cc3)ncc2cc1-c1c(Cl)cccc1Cl [Example 6-3, 6-(2,6-Dichloro-phenyl)-2-(4-morpholin-4-yl-phenylamino)-pyrido[2,3-d]pyrimidine-7-carboxylic acid (2-methanesulfonylamino-ethyl)-amide]
13 | 1.1 | 1.6 | CS(=O)(=O)NCCNC(=O)c1nc2nc(Nc3ccc(OCCO)cc3)ncc2cc1-c1c(Cl)cccc1Cl [Example 6-4, 6-(2,6-Dichloro-phenyl)-2-[4-(2-hydroxy-ethoxy)-phenylamino]-pyrido[2,3-d]pyrimidine-7-carboxylic acid (2-methanesulfonylamino-ethyl)-amide]
14 | 0.6 | 1.7 | O=C(NC[C@H]1CCCN1)c1nc2nc(Nc3ccc(OCCO)cc3)ncc2cc1-c1c(Cl)cccc1Cl [Example 6-5, 6-(2,6-Dichloro-phenyl)-2-[4-(2-hydroxy-ethoxy)-phenylamino]-pyrido[2,3-d]pyrimidine-7-carboxylic acid ((R)-1-pyrrolidin-2-ylmethyl)-amide]
15 | 2.5 | 9.9 | CSc1cccc(Nc2ncc3cc(-c4c(Cl)cccc4Cl)c(C(=O)NCCNS(C)(=O)=O)nc3n2)c1 [Example 6-7, 6-(2,6-Dichloro-phenyl)-2-(3-methylsulfanyl-phenylamino)-pyrido[2,3-d]pyrimidine-7-carboxylic acid (2-methanesulfonylamino-ethyl)-amide]
16 | 4.7 | 7.8 | Cc1ccc(Nc2ncc3cc(-c4c(Cl)cccc4Cl)c(C(=O)NCCNS(C)(=O)=O)nc3n2)cn1 [Example 6-8, 6-(2,6-Dichloro-phenyl)-2-(6-methyl-pyridin-3-ylamino)-pyrido[2,3-d]pyrimidine-7-carboxylic acid (2-methanesulfonylamino-ethyl)-amide]
